Patent publication US6313090A, “Methods for treating parasitic infection using thiopeptides” (The United States of America as represented by the …, priority 2000, dated 2001)

System: MDBKF5D2 cell monolayers
Test: Toxicity testing assay (MTS/PMS, OD 490 nm)
Type: cell-based
Description: (§1) Toxicity Testing Assay. 200 μl of medium containing drug at the above-mentioned concentrations and positive control preparations [paromomycin/DMSO (2 mg/ml/0.2%)] were introduced into two wells of a 96 well plate containing confluent MDBKF5D2 cell monolayers (ATCC accession number CCL-22) infected with intact C. parvum GCH1 oocysts (5.0×10^4 per well) (43) and two wells without monolayers. The drug was incubated on the monolayers at 37° C. and 8% CO2. At 48 hours, MTS (Owen's solution) and PMS were added to each well at concentrations of 333 μg/ml and 25 μM respectively. The plate was returned to the incubator in the dark to develop for two hours. At two hours, 100 μl of each supernatant was transferred to a new microtiter plate and the optical density (OD) was read in an ELISA plate reader at 490 nm.
(§2) Percent toxicity was calculated by subtracting the mean drug OD from the medium OD, divided by the medium OD, all of which was then multiplied by 100, as shown in the equation below. Cytotoxicity scores were assigned as follows: 0-5% toxicity=0, 6-25% toxicity=1, 26-50% toxicity=2, 51-75% toxicity=3, and 76-100% toxicity=4. As a standard, cytotoxicity scores of 0 or, 1 were considered acceptable levels of toxicity. Toxicity scores of 2, 3, or 4 were considered as high levels of toxicity to the cell monolayer. [formula]
as §1, with “containing drugs” for “containing drug”, “monolayers” for “monolayers (ATCC accession number CCL-22)”, “well)” for “well) (43)”, “and 25μM” for “and 25 μM”
as §2, with “or” for “or,”
as §1, with “monolayers” for “monolayers (ATCC accession number CCL-22)”, “well)” for “well) (43)”, “25μM” for “25 μM”

[1] = Table 4 Washed at 4 hours, 100 μg/ml
[2] = Table 4 Washed at 4 hours, 200 μg/ml
[3] = Table 4 Washed at 4 hours, 400 μg/ml
[4] = Table 4 Washed at 4 hours, 800 μg/ml
[5] = Table 5, 800 μg/ml, drug added at 0 hrs
[6] = Table 5, 800 μg/ml, drug added at 2 hrs
[7] = Table 5, 800 μg/ml, drug added at 4 hrs
[8] = Table 5, 800 μg/ml, drug added at 8 hrs
[9] = Table 5, 800 μg/ml, drug added at 24 hrs
[10] = Table 2, 2 mg/ml, listed as PRM/DMSO
[11] = Table 4 Washed at 4 hours, 250 μg/ml
[12] = Table 4 Washed at 4 hours, 500 μg/ml
[13] = Table 4 Washed at 4 hours, 1000 μg/ml
[14] = Table 4 Washed at 4 hours, 2000 μg/ml
[15] = Table 5, 2000 μg/ml, drug added at 0 hrs
[16] = Table 5, 2000 μg/ml, drug added at 2 hrs
[17] = Table 5, 2000 μg/ml, drug added at 4 hrs
[18] = Table 5, 2000 μg/ml, drug added at 8 hrs
[19] = Table 5, 2000 μg/ml, drug added at 24 hrs

C=C(NC(=O)C(=C)NC(=O)c1csc(C2=N[C@@H]3c4csc(n4)[C@H]4NC(=O)c5csc(n5)[C@H]([C@](C)(O)[C@@H](C)O)NC(=O)[C@H]5CSC(=N5)/C(=C/C)NC(=O)[C@H]([C@@H](C)O)NC(=O)c5csc(n5)[C@]3(CC2)NC(=O)[C@H](C)NC(=O)C(=C)NC(=O)[C@H](C)NC(=O)[C@H]([C@@H](C)CC)N[C@@H]2C=Cc3c([C@H](C)O)cc(nc3[C@H]2O)C(=O)O[C@@H]4C)n1)C(N)=O [Thiostrepton, thiostrepton]
Tox. O.D. (Table 1, 1 μg/ml): .941 | Toxicity Percent (Table 1, 1 μg/ml): 14.50% | Toxicity Score (Table 1, 1 μg/ml): 1 (6-25% toxicity=1) | Tox. O.D. (Table 1, 10 μg/ml): .991 | Toxicity Percent (Table 1, 10 μg/ml): 9.95% | Toxicity Score (Table 1, 10 μg/ml): 1 (6-25% toxicity=1) | Tox. O.D. (Table 1, 100 μg/ml): .994 | Toxicity Percent (Table 1, 100 μg/ml): 9.64% | Toxicity Score (Table 1, 100 μg/ml): 1 (6-25% toxicity=1) | Tox. O.D. (Table 1, .1 μg/ml): .912 | Toxicity Percent (Table 1, .1 μg/ml): 17.14% | Toxicity Score (Table 1, .1 μg/ml): 1 (6-25% toxicity=1) | Tox. O.D. (Table 2, 100 μg/ml): .915 | Toxicity Percent (Table 2, 100 μg/ml): 9.14% | Toxicity Score (Table 2, 100 μg/ml): 1 (6-25% toxicity=1) | Tox. O.D. (Table 2, 200 μg/ml): .820 | Toxicity Percent (Table 2, 200 μg/ml): 18.62% | Toxicity Score (Table 2, 200 μg/ml): 1 (6-25% toxicity=1) | Tox. O.D. (Table 2, 400 μg/ml): .799 | Toxicity Percent (Table 2, 400 μg/ml): 20.71% | Toxicity Score (Table 2, 400 μg/ml): 1 (6-25% toxicity=1) | Tox. O.D. (Table 2, 800 μg/ml): .676 | Toxicity Percent (Table 2, 800 μg/ml): 32.87% | Toxicity Score (Table 2, 800 μg/ml): 2 (26-50% toxicity=2) | Tox. O.D. (Table 3 Unwashed, 100 μg/ml): .969 | Toxicity Percent (Table 3 Unwashed, 100 μg/ml): 7.10% | Toxicity Score (Table 3 Unwashed, 100 μg/ml): 1 (6-25% toxicity=1) | Tox. O.D. (Table 3 Unwashed, 200 μg/ml): .827 | Toxicity Percent (Table 3 Unwashed, 200 μg/ml): 20.67% | Toxicity Score (Table 3 Unwashed, 200 μg/ml): 1 (6-25% toxicity=1) | Tox. O.D. (Table 3 Unwashed, 400 μg/ml): .788 | Toxicity Percent (Table 3 Unwashed, 400 μg/ml): 24.41% | Toxicity Score (Table 3 Unwashed, 400 μg/ml): 1 (6-25% toxicity=1) | Tox. O.D. (Table 3 Unwashed, 800 μg/ml): .739 | Toxicity Percent (Table 3 Unwashed, 800 μg/ml): 29.11% | Toxicity Score (Table 3 Unwashed, 800 μg/ml): 2 (26-50% toxicity=2) | Tox. O.D. [1]: .969 | Toxicity Percent [1]: 6.96% | Toxicity Score [1]: 1 (6-25% toxicity=1) | Tox. O.D. [2]: .827 | Toxicity Percent [2]: 20.56% | Toxicity Score [2]: 1 (6-25% toxicity=1) | Tox. O.D. [3]: .788 | Toxicity Percent [3]: 24.30% | Toxicity Score [3]: 1 (6-25% toxicity=1) | Tox. O.D. [4]: .739 | Toxicity Percent [4]: 29.01% | Toxicity Score [4]: 2 (26-50% toxicity=2) | Tox. O.D. [5]: .783 | Toxicity Percent [5]: 22.91% | Toxicity Score [5]: 1 (6-25% toxicity=1) | Tox. O.D. [6]: .577 | Toxicity Percent [6]: 43.15% | Toxicity Score [6]: 2 (26-50% toxicity=2) | Tox. O.D. [7]: .638 | Toxicity Percent [7]: 37.14% | Toxicity Score [7]: 2 (26-50% toxicity=2) | Tox. O.D. [8]: .786 | Toxicity Percent [8]: 22.56% | Toxicity Score [8]: 1 (6-25% toxicity=1) | Tox. O.D. [9]: .749 | Toxicity Percent [9]: 26.26% | Toxicity Score [9]: 2 (26-50% toxicity=2) | Tox. O.D. (Table 6, 100 μg/ml): 1.348 | Toxicity Percent (Table 6, 100 μg/ml): 18.15% | Toxicity Score (Table 6, 100 μg/ml): 1 (6-25% toxicity=1) | Tox. O.D. (Table 6, 200 μg/ml): 1.324 | Toxicity Percent (Table 6, 200 μg/ml): 19.61% | Toxicity Score (Table 6, 200 μg/ml): 1 (6-25% toxicity=1) | Tox. O.D. (Table 6, 400 μg/ml): 1.146 | Toxicity Percent (Table 6, 400 μg/ml): 30.45% | Toxicity Score (Table 6, 400 μg/ml): 2 (26-50% toxicity=2) | Tox. O.D. (Table 6, 800 μg/ml): .890 | Toxicity Percent (Table 6, 800 μg/ml): 45.96% | Toxicity Score (Table 6, 800 μg/ml): 2 (26-50% toxicity=2) | toxicity to cells (in vitro, summary statement): little toxicity to cells

NC[C@@H]1O[C@H](O[C@H]2[C@@H](O)[C@H](O[C@@H]3[C@@H](O)[C@H](N)C[C@H](N)[C@H]3O[C@H]3O[C@H](CO)[C@@H](O)[C@H](O)[C@H]3N)O[C@@H]2CO)[C@H](N)[C@@H](O)[C@@H]1O [PRM, paromomycin]
Tox. O.D. (Table 1, 2000 μg/ml): .868 | Toxicity Percent (Table 1, 2000 μg/ml): 21.09% | Toxicity Score (Table 1, 2000 μg/ml): 1 (6-25% toxicity=1) | Tox. O.D. (Table 2, 2 mg/ml): .954 | Toxicity Percent (Table 2, 2 mg/ml): -4.38% | Toxicity Score (Table 2, 2 mg/ml): 0 (0-5% toxicity=0) | Tox. O.D. [10]: .963 | Toxicity Percent [10]: 4.37% | Tox. O.D. (Table 3 Unwashed, 250 μg/ml): 1.121 | Toxicity Percent (Table 3 Unwashed, 250 μg/ml): -7.53% | Toxicity Score (Table 3 Unwashed, 250 μg/ml): 0 (0-5% toxicity=0) | Tox. O.D. (Table 3 Unwashed, 500 μg/ml): 1.019 | Toxicity Percent (Table 3 Unwashed, 500 μg/ml): 2.30% | Toxicity Score (Table 3 Unwashed, 500 μg/ml): 0 (0-5% toxicity=0) | Tox. O.D. (Table 3 Unwashed, 1000 μg/ml): .963 | Toxicity Percent (Table 3 Unwashed, 1000 μg/ml): 7.67% | Toxicity Score (Table 3 Unwashed, 1000 μg/ml): 1 (6-25% toxicity=1) | Tox. O.D. (Table 3 Unwashed, 2000 μg/ml): 1.061 | Toxicity Percent (Table 3 Unwashed, 2000 μg/ml): -1.73% | Toxicity Score (Table 3 Unwashed, 2000 μg/ml): 0 (0-5% toxicity=0) | Tox. O.D. [11]: 1.121 | Toxicity Percent [11]: -7.68% | Toxicity Score [11]: 0 (0-5% toxicity=0) | Tox. O.D. [12]: 1.019 | Toxicity Percent [12]: 2.16% | Toxicity Score [12]: 0 (0-5% toxicity=0) | Tox. O.D. [13]: .963 | Toxicity Percent [13]: 7.54% | Toxicity Score [13]: 1 (6-25% toxicity=1) | Tox. O.D. [14]: 1.061 | Toxicity Percent [14]: -1.87% | Toxicity Score [14]: 0 (0-5% toxicity=0) | Tox. O.D. [15]: .962 | Toxicity Percent [15]: 16.17% | Toxicity Score [15]: 1 (6-25% toxicity=1) | Tox. O.D. [16]: .878 | Toxicity Percent [16]: 23.49% | Toxicity Score [16]: 1 (6-25% toxicity=1) | Tox. O.D. [17]: .923 | Toxicity Percent [17]: 19.56% | Toxicity Score [17]: 1 (6-25% toxicity=1) | Tox. O.D. [18]: .871 | Toxicity Percent [18]: 24.05% | Toxicity Score [18]: 1 (6-25% toxicity=1) | Tox. O.D. [19]: .850 | Toxicity Percent [19]: 25.93% | Toxicity Score [19]: 1 (6-25% toxicity=1) | Tox. O.D. (Table 6, 2 mg/ml): 1.273 | Toxicity Percent (Table 6, 2 mg/ml): 22.74% | Toxicity Score (Table 6, 2 mg/ml): 1 (6-25% toxicity=1)
